Measured values as given in PMC11865548 (Nature Communications, 2025).

Tests used:
MexL [1] = target: T1, MexL (Pseudomonas aeruginosa, UniProt Q9HXW2); assay: thermal shift; format: biochemical
T1 sequence (Q9HXW2 1-212): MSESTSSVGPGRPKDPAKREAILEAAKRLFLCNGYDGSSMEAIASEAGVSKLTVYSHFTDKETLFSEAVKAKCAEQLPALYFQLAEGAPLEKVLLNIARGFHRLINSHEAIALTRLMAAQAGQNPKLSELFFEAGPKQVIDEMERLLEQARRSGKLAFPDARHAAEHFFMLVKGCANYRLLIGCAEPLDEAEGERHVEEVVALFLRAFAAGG

MexL [2] = target: T1, MexL; assay: BLI; format: binding

Structure (SMILES)	thermal shift (Tm decrease) and EMSA interference with DNA binding (MexL [1])	Kd (MexL [2])
Oc1cc(Cl)ccc1Oc1ccc(Cl)cc1Cl [TCS, triclosan]	these two antimicrobials both can interfere with the DNA-binding activity of MexL in EMSA	–
Cn1c2cccc(=O)c-2nc2ccccc21 [PYO, pyocyanin]	–	84.2 ± 1.8 µM
CN(C)[C@@H]1C(O)=C(C(N)=O)C(=O)[C@@]2(O)C(O)=C3C(=O)c4c(O)cccc4[C@@](C)(O)[C@H]3C[C@@H]12 [TET, tetracycline]	both TET and TCS also significantly reduce the Tm values of MexL (Fig. 6b), indicating their interaction with MexL	–
